In ChEMBL document CHEMBL3217478, “Necrosulfonamide inhibits necroptosis by selectively targeting the mixed lineage kinase domain-like protein” (2014):
Activity calls are given as the source filed them. No cut-off for these calls is given here. Residues, ends and D or L forms follow the SMILES beside them. *: point of attachment. X1 = COc1nc(CCCN*)cnc1NS(=O)(=O)c1ccc(NC(=O)CCc2cccs2)cc1; Biotin = O=C1N[C@H]2[C@H](CS[C@H]2CCCCC(=O)*)N1; Ahx = NCCCCCC(=O)O

The compounds below were run against T1, Mixed lineage kinase domain-like protein (Homo sapiens) (UniProt Q8NB16) (assay: Competitive binding affinity to Myc-tagged MLKL (unknown origin) transfected in human HeLa cells at 20 nM by Western blot analysis in presence of biotin-labeled positive probe). Details: not given.
T1 sequence (whole entry): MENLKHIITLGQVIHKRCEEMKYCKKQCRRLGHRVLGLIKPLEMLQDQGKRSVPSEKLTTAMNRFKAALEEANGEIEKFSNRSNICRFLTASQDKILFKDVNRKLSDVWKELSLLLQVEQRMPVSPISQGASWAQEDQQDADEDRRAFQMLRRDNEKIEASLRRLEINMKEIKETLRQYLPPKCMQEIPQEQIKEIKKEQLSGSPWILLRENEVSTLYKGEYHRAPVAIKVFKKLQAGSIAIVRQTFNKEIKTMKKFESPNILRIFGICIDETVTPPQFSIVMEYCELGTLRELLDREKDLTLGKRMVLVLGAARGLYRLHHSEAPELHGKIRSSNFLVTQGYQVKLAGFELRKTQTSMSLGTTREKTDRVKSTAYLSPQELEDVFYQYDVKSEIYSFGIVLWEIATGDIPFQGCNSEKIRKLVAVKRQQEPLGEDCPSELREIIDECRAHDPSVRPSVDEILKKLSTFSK
Assay type: cell-based
For `C#CCOc1nccnc1NS(=O)(=O)c1ccc(NC(=O)/C=C/c2sccc2[N+](=O)[O-])cc1`, the Activity was “inactive”.
With `COc1nccnc1NS(=O)(=O)c1ccc(NC(=O)/C=C/c2ccc([N+](=O)[O-])s2)cc1` the Activity was “Active”.
With `COc1nccnc1NS(=O)(=O)c1ccc(NC(=O)/C=C/c2ccc(Br)s2)cc1` the Activity was “inactive”.

What follows are compounds tested on HT-29 (assay: Cytoprotective activity against TNF-alpha, smac mimetic, z-VAD-induced necrosis in human HT-29 cells assessed as cell survival by measuring cellular ATP level at 4 uM after 24 hrs by Cell Titer-Glo assay relative to control). Details: not given.
Assay type: functional
`COc1nc(CCCNC(=O)CC[C@H](NC(=O)[C@@H]2CCCN2C(=O)[C@@H]2CCCN2C(=O)[C@@H]2CCCN2C(=O)[C@@H]2CCCN2C(=O)C2CCCN2C(=O)[C@@H]2CCCN2C(=O)[C@@H]2CCCN2C(=O)[C@@H]2CCCN2C(=O)[C@@H]2CCCN2C(=O)CCCCCNC(=O)CCCC[C@@H]2SC[C@@H]3NC(=O)N[C@@H]32)C(N)=O)cnc1NS(=O)(=O)c1ccc(NC(=O)/C=C/c2ccc([N+](=O)[O-])s2)cc1` (single isomer, unassigned) was tested, and the Activity was “Active”.
`COc1nc(CCCNC(=O)CC[C@H](NC(=O)[C@@H]2CCCN2C(=O)[C@@H]2CCCN2C(=O)[C@@H]2CCCN2C(=O)[C@@H]2CCCN2C(=O)[C@@H]2CCCN2C(=O)[C@@H]2CCCN2C(=O)[C@@H]2CCCN2C(=O)[C@@H]2CCCN2C(=O)[C@@H]2CCCN2C(=O)CCCCCNC(=O)CCCC[C@@H]2SC[C@@H]3NC(=O)N[C@@H]32)C(N)=O)cnc1NS(=O)(=O)c1ccc(NC(=O)CCc2cccs2)cc1` ({Biotin-Ahx}-PPPPPPPPPE(X1)-NH2) was tested, and the Activity was “inactive”.

Same assay, conditions: HT-29, 24 h, read-out: Survival
Work on `O=C(/C=C/c1ccc([N+](=O)[O-])s1)Nc1ccc(S(=O)(=O)Nc2nccnc2OCc2ccccc2)cc1` yielded a viability at 4 µM of 92.2%.
In the case of `COc1nccnc1NS(=O)(=O)c1ccc(NC(=O)CCc2ccc([N+](=O)[O-])s2)cc1`, the viability at 4 µM is reported as 29.9%.
In the case of `C#CCOc1nccnc1NS(=O)(=O)c1ccc(NC(=O)/C=C/c2sccc2[N+](=O)[O-])cc1`, the viability at 4 µM is reported as 19.8%.
In the case of `COc1nccnc1NS(=O)(=O)c1ccc(NC(=O)/C=C/c2ccc([N+](=O)[O-])cc2)cc1`, the viability at 4 µM is reported as 32.2%.
`Cc1cc(C)nc(NS(=O)(=O)c2ccc(NC(=O)/C=C/c3ccc([N+](=O)[O-])s3)cc2)n1` was tested, and the viability at 4 µM was 79.2%.
`COc1nccnc1NS(=O)(=O)c1ccc(NC(=O)/C=C/c2ccc([N+](=O)[O-])s2)cc1` showed a viability at 4 µM of 80.3%.
`C#CCOc1nccnc1NS(=O)(=O)c1ccc(NC(=O)/C=C/c2ccc([N+](=O)[O-])s2)cc1` was tested, and the viability at 4 µM was 90.8%.
`COc1nc(Br)cnc1NS(=O)(=O)c1ccc(NC(=O)/C=C/c2ccc([N+](=O)[O-])s2)cc1` showed a viability at 4 µM of 90.8%.
Compound `O=C(/C=C/c1ccc([N+](=O)[O-])s1)Nc1ccc(S(=O)(=O)Nc2nccnc2O)cc1` has a viability at 4 µM of 90.4%.
`COc1nccnc1NS(=O)(=O)c1ccc(NC(=O)CCc2cccs2)cc1` showed a viability at 4 µM of 30.4%.
`COc1nccnc1NS(=O)(=O)c1ccc(NC(=O)/C=C/c2cccc([N+](=O)[O-])c2)cc1` was tested, and the viability at 4 µM was 32%.
`COc1nccnc1NS(=O)(=O)c1ccc(NC(=O)/C=C/c2ccc(Br)s2)cc1` gave a viability at 4 µM of 31.8%.
With `COc1nccnc1NS(=O)(=O)c1ccc(NC(=O)/C=C/c2cccs2)cc1` the viability at 4 µM was 29.5%.
